ChEMBL document CHEMBL1132910, “SAR of 4-hydroxypiperidine and hydroxyalkyl substituted heterocycles as novel p38 map kinase inhibitors” (Bioorg Med Chem Lett, 2000)
pIC50: −log10 of the molar value.

How the values were obtained:
[1] = biological target: Mitogen-activated protein kinase 14 (Mus musculus, UniProt P47811); assay: Inhibition of murine p38 alpha MAP kinase
[2] = biological target: T1, Prostaglandin G/H synthase 1 (Ovis aries, UniProt P05979); assay: Inhibition of Prostaglandin G/H synthase 1, COX-1
T1 sequence (P05979 whole entry): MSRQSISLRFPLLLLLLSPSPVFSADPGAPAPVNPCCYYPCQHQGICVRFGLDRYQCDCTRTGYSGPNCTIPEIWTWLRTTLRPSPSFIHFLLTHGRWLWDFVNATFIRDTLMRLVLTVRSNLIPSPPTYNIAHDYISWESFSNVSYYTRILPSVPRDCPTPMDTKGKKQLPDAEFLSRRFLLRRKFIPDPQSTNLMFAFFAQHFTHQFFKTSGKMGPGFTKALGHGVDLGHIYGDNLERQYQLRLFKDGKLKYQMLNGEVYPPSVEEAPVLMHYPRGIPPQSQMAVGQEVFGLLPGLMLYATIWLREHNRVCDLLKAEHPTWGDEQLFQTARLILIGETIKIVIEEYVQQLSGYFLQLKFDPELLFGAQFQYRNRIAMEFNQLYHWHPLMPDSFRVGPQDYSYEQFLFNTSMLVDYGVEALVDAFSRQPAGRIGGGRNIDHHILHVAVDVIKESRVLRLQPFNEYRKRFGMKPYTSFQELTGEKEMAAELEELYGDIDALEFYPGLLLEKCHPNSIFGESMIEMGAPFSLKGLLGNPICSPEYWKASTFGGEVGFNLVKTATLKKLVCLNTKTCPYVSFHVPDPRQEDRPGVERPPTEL

[3] = biological target: Mitogen-activated protein kinase 8 (Homo sapiens, UniProt P45983); assay: Inhibition of JNK1 kinase
[4] = biological target: Mitogen-activated protein kinase 9 (Homo sapiens, UniProt P45984); assay: Inhibition of JNK2 kinase
[5] = biological target: Mitogen-activated protein kinase 1 (Mus musculus, UniProt P63085); assay: Inhibition of ERK2 kinase
Rattus norvegicus [6] = assay: Effect on adjuvant induced arthritis in rats at 25 mg/kg peroral dose twice daily over 10 days; format: functional; conditions: 240 h, route oral
Rattus norvegicus [7] = assay: Effect on collagen induced arthritis in rats at 25 mg/kg peroral dose twice daily over 10 days; format: functional; conditions: route oral
[8] = biological target: Epidermal growth factor receptor (Homo sapiens, UniProt P00533); assay: Inhibition of EGFR kinase
Mus musculus [9] = assay: (§1) Inhibition of LPS-induced TNF-alpha release in mice at 20 mg/kg; format: functional
[10] = Cmax value at a oral dose of […] mg/kg; format: ADME, organism-based; conditions: in vivo, 20 mg/kg
[11] = biological target: Protein kinase C alpha type (Bos taurus, UniProt P04409); assay: Inhibition of PKCalpha kinase
[12] = biological target: Tyrosine-protein kinase ABL1 (Mus musculus, UniProt P00520); assay: Inhibition of c-abl kinase
Mus musculus [13] = assay: as §1; format: functional, organism-based; set-up: dose 20 mg/kg
[14] = Bioavailability; format: ADME, organism-based; conditions: eutheria, in vivo
[15] = biological target: Mitogen-activated protein kinase 11 (Homo sapiens, UniProt Q15759); assay: Inhibition of human p38 beta MAP kinase
[16] = biological target: Proto-oncogene tyrosine-protein kinase Src (Gallus gallus, UniProt P00523); assay: Inhibition of c-src kinase
[17] = biological target: T2, Dual specificity mitogen-activated protein kinase kinase 6 (Homo sapiens, UniProt P52564); assay: Inhibition of MKK6b kinase
T2 sequence (P52564 whole entry): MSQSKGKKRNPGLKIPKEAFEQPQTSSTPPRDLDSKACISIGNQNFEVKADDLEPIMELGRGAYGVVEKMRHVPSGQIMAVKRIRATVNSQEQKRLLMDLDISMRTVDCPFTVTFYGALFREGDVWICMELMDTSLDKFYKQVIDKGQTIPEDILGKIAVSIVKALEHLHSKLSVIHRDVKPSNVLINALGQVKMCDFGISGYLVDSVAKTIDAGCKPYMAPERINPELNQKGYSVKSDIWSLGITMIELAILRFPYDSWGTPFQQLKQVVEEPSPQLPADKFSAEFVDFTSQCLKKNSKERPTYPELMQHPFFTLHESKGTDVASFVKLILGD

[18] = biological target: T3, Mitogen-activated protein kinase 13 (Homo sapiens, UniProt O15264); assay: Inhibition of human p38 delta MAP kinase
T3 sequence (O15264 whole entry): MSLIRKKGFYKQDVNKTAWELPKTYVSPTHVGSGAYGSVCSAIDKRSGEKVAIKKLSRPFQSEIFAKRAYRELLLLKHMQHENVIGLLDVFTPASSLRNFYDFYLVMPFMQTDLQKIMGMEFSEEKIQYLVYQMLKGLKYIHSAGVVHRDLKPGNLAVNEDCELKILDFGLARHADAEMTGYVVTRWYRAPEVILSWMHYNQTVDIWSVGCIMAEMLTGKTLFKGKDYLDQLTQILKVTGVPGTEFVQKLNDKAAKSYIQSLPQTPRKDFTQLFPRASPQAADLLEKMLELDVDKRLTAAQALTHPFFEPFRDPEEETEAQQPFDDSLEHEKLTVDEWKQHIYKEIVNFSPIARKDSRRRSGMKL

Chain of Mitogen-activated protein kinase 14 (P47811 whole entry): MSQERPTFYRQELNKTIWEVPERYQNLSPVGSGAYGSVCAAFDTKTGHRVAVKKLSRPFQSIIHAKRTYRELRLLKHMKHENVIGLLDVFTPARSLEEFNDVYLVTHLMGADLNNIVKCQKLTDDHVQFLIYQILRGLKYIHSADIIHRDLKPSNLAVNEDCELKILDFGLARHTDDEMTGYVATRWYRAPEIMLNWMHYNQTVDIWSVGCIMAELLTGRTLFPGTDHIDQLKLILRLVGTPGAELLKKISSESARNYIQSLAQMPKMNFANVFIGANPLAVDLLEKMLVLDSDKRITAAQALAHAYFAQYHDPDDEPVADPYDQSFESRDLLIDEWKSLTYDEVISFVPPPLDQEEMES
Chain of Epidermal growth factor receptor (P00533 whole entry): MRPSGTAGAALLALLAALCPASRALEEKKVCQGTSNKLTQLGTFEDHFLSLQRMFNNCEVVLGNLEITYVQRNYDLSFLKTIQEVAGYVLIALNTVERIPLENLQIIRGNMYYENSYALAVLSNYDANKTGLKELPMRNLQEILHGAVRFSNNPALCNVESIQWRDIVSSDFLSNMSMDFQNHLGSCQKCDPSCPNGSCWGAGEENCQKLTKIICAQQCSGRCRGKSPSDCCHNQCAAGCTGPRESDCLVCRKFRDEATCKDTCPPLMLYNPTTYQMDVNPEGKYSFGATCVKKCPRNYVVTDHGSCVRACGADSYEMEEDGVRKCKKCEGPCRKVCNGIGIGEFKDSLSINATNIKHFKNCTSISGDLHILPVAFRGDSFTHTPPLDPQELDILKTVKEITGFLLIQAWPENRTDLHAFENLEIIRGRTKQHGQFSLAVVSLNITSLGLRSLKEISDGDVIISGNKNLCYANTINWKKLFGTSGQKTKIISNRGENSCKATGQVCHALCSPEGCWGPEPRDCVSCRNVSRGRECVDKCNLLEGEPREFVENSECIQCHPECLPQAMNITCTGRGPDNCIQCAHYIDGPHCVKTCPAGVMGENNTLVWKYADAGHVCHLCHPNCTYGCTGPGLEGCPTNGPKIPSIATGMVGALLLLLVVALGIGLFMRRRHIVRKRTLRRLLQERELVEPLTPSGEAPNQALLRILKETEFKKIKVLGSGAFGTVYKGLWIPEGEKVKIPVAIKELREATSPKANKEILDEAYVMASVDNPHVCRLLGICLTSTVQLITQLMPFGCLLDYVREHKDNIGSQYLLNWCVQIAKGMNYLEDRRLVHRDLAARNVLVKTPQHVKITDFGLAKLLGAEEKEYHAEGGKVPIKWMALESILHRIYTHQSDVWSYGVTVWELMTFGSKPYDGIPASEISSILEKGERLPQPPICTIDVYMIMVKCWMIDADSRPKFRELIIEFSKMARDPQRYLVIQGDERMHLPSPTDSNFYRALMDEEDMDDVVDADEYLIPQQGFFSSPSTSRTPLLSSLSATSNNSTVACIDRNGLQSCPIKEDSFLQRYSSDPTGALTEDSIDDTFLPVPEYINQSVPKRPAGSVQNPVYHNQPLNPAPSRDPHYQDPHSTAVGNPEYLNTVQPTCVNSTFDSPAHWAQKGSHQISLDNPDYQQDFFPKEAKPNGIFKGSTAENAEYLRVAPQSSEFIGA
Chain of Mitogen-activated protein kinase 11 (Q15759 whole entry): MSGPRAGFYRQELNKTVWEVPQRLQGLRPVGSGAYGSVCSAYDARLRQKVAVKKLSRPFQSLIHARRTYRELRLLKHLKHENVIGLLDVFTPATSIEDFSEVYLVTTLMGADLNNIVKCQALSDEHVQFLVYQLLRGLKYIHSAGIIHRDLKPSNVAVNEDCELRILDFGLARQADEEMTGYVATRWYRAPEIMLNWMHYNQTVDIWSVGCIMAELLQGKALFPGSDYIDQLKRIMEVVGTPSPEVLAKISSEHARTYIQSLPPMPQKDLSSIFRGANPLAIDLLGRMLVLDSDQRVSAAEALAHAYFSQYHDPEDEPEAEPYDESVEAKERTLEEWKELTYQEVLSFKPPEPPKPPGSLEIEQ
Chain of Tyrosine-protein kinase ABL1 (P00520 whole entry): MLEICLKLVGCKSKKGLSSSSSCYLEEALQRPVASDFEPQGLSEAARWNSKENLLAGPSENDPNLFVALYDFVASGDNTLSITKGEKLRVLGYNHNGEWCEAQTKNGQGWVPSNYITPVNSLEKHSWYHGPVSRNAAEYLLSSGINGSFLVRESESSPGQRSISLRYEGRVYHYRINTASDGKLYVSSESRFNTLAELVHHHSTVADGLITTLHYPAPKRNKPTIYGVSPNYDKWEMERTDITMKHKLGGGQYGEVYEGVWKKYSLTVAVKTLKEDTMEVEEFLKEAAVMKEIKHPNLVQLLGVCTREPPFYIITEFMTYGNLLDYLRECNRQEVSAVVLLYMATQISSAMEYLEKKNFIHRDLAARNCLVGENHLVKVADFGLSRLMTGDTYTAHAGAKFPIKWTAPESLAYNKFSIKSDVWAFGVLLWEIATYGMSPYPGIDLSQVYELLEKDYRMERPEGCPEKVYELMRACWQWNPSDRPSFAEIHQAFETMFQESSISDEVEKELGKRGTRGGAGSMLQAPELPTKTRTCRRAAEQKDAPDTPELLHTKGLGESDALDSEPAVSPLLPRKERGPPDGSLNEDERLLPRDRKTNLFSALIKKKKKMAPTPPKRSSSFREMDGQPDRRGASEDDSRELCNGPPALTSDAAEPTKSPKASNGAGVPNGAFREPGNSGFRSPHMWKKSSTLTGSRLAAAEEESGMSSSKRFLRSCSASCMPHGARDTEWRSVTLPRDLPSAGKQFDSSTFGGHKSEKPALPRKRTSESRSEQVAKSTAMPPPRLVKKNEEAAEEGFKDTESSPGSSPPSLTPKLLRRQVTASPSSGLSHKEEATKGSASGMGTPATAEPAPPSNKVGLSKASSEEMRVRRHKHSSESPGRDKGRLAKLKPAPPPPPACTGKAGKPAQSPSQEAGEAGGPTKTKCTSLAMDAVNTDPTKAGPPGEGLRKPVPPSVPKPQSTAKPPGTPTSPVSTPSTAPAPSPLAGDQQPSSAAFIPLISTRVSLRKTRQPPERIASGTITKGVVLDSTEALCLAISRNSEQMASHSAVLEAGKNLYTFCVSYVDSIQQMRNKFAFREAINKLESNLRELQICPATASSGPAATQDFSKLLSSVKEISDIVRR
Chain of Mitogen-activated protein kinase 1 (P63085 whole entry): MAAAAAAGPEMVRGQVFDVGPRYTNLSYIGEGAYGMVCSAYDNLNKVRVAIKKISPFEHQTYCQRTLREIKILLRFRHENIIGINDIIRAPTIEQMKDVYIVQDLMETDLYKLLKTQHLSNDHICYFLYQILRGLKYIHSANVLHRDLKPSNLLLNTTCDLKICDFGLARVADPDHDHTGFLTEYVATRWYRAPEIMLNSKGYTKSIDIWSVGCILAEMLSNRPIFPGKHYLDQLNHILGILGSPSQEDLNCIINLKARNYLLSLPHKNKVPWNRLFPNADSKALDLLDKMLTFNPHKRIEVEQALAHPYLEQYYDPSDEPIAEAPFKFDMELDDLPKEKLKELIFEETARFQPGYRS
Chain of Mitogen-activated protein kinase 8 (P45983 whole entry): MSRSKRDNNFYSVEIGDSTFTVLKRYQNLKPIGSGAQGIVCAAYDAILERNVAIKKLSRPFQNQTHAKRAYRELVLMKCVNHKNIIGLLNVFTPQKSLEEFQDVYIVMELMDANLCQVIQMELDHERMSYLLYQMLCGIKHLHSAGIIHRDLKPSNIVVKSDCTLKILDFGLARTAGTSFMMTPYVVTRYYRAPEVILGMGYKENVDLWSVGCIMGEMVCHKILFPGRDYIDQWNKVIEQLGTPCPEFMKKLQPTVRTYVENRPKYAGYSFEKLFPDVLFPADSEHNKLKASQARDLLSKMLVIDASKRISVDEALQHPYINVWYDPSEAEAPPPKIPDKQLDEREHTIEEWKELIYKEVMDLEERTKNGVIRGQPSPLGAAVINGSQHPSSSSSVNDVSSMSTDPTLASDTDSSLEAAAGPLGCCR
Chain of Mitogen-activated protein kinase 9 (P45984 whole entry): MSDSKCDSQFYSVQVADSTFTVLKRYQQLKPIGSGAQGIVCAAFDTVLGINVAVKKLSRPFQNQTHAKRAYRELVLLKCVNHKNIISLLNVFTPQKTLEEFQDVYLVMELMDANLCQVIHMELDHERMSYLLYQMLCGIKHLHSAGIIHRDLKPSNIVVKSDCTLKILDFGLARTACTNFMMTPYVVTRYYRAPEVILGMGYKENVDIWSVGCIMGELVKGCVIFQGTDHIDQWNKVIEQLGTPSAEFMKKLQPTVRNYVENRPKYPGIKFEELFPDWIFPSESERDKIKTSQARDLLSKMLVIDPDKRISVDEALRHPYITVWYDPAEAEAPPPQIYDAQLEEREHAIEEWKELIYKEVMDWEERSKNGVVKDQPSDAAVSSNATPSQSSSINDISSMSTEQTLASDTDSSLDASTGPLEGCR

Row | SMILES | pIC50 [1] | pIC50 [2] | inhibition in vivo at 20 mg/kg (Mus musculus [9]) [%] | pIC50 (Mus musculus [13]) | further results
1 | CN1CCC(O)(c2nc(-c3ccc(F)cc3)c(-c3ccncc3)o2)CC1 | 6.46 | < 4.00 | 50 | 6.74 | pIC50 [3]: < 5.00; pIC50 [4]: 5.09; pIC50 [5]: < 5.00; inhibition in vivo at 25 mg/kg (Rattus norvegicus [6]): 40%; ED50 (Rattus norvegicus [7]): 20 mg/kg/day; pIC50 [8]: 6.10; Cmax [10]: 1960 nM; pIC50 [11]: 4.29; pIC50 [12]: 4.06; bioavailability [14]: 65%; pIC50 [15]: 5.62; pIC50 [16]: 4.64; pIC50 [17]: < 4.00; pIC50 [18]: < 5.00
2 | CN1CCC(O)(c2nc(-c3ccc(F)cc3)c(-c3ccncc3)s2)CC1 | 6.35 | 4.14 | 0 | 6.84 | –
3 | OC1(c2nc(-c3ccncc3)c(-c3ccc(F)cc3)[nH]2)CCC1 | 6.82 | 4.70 | – | – | –
4 | CN1CCC(O)(c2nc(-c3ccncc3)c(-c3ccc(F)cc3)o2)CC1 | 5.70 | – | – | – | –
5 | CC(C)(O)c1nc(-c2ccncc2)c(-c2ccc(F)cc2)[nH]1 | 6.33 | 4.06 | – | – | –
6 | CN1CCC(O)(c2nc(-c3ccc(F)cc3)c(-c3ccncc3)[nH]2)CC1 | 7.05 | < 4.00 | 77 | 7.82 | inhibition in vivo at 25 mg/kg (Rattus norvegicus [6]): 23%; Cmax [10]: 400 nM; bioavailability [14]: 23%
7 | CC(C)(C)c1nc(-c2ccncc2)c(-c2ccccc2)[nH]1 | 6.35 | 5.30 | – | – | –

More lines, main results first:

Row | pIC50 [1] | pIC50 [2] | SMILES | inhibition in vivo at 20 mg/kg (Mus musculus [9]) [%] | pIC50 (Mus musculus [13]) | further results
8 | 7.10 | 5.52 | OC1(c2nc(-c3ccncc3)c(-c3ccc(F)cc3)[nH]2)CCCC1 | – | – | –
9 | 7.70 | 4.40 | OC1(c2nc(-c3ccncc3)c(-c3ccc(F)cc3)[nH]2)CC1 | – | – | –
10 | 6.89 | < 4.00 | CN1CCC(O)(c2cc(-c3ccncc3)c(-c3ccc(F)cc3)[nH]2)CC1 | 18 | 6.90 | –
11 | 7.12 | 6.70 | OC1(c2nc(-c3ccncc3)c(-c3ccc(F)cc3)[nH]2)CCCCCC1 | – | – | –
12 | 6.92 | 5.20 | OC1(c2nc(-c3ccncc3)c(-c3ccc(F)cc3)[nH]2)CCCCC1 | – | – | –
